Legend:
[1] = biological target: CAMKK2 (human) (UniProt Q96RR4); test: radiometric filter-binding kinase assay
[2] = biological target: CSK (human) (UniProt P41240); test: radiometric filter-binding kinase assay
[3] = biological target: DYRK1A (human) (UniProt Q13627); test: radiometric filter-binding kinase assay
[4] = biological target: EPHA2 (human) (UniProt P29317); test: radiometric filter-binding kinase assay
[5] = biological target: INSRR (human) (UniProt P14616); test: radiometric filter-binding kinase assay
[6] = biological target: MAPK10 (human) (UniProt P53779); test: radiometric filter-binding kinase assay
[7] = biological target: MAPK13 (human) (UniProt O15264); test: radiometric filter-binding kinase assay
[8] = biological target: MAPKAPK5 (human) (UniProt Q8IW41); test: radiometric filter-binding kinase assay
[9] = biological target: PIM3 (human) (UniProt Q86V86); test: radiometric filter-binding kinase assay
[10] = biological target: PRKCZ (human) (UniProt Q05513); test: radiometric filter-binding kinase assay
[11] = biological target: RPS6KA5 KD1 KD2 (human) (UniProt O75582); test: radiometric filter-binding kinase assay
[12] = biological target: ZAP70 (human) (UniProt P43403); test: radiometric filter-binding kinase assay
[13] = biological target: BMX (human) (UniProt P51813); test: KINOMEscan competition binding; settings: compound 10.0 µM
[14] = biological target: CAMK1D (human) (UniProt Q8IU85); test: KINOMEscan competition binding; settings: compound 10.0 µM
[15] = biological target: CAMKK2 (human) (UniProt Q96RR4); test: KINOMEscan competition binding; settings: compound 10.0 µM
[16] = biological target: CDC2L2 (human) (UniProt Q9UQ88); test: KINOMEscan competition binding; settings: compound 10.0 µM
[17] = biological target: CDK14 (human) (UniProt O94921); test: KINOMEscan competition binding; settings: compound 10.0 µM
[18] = biological target: CDK2 (human) (UniProt P24941); test: KINOMEscan competition binding; settings: compound 10.0 µM
[19] = biological target: CIT (human) (UniProt O14578); test: KINOMEscan competition binding; settings: compound 10.0 µM
[20] = test system: EGFR (human), P00533 [G719S]; test: KINOMEscan competition binding; settings: compound 10.0 µM
[21] = test system: EGFR (human), P00533 [L861Q]; test: KINOMEscan competition binding; settings: compound 10.0 µM
[22] = biological target: FGFR3 (human) (UniProt P22607); test: KINOMEscan competition binding; settings: compound 10.0 µM
[23] = biological target: GAK (human) (UniProt O14976); test: KINOMEscan competition binding; settings: compound 10.0 µM
[24] = biological target: HCK (human) (UniProt P08631); test: KINOMEscan competition binding; settings: compound 10.0 µM
[25] = biological target: HIPK1 (human) (UniProt Q86Z02); test: KINOMEscan competition binding; settings: compound 10.0 µM
[26] = biological target: INSR (human) (UniProt P06213); test: KINOMEscan competition binding; settings: compound 10.0 µM
[27] = biological target: INSRR (human) (UniProt P14616); test: KINOMEscan competition binding; settings: compound 10.0 µM
[28] = biological target: KDR (human) (UniProt P35968); test: KINOMEscan competition binding; settings: compound 10.0 µM
[29] = biological target: LATS2 (human) (UniProt Q9NRM7); test: KINOMEscan competition binding; settings: compound 10.0 µM
[30] = biological target: MLTK (human) (UniProt Q9NYL2); test: KINOMEscan competition binding; settings: compound 10.0 µM
[31] = biological target: MYLK2 (human) (UniProt Q9H1R3); test: KINOMEscan competition binding; settings: compound 10.0 µM
[32] = biological target: MYO3B (human) (UniProt Q8WXR4); test: KINOMEscan competition binding; settings: compound 10.0 µM
[33] = biological target: NLK (human) (UniProt Q9UBE8); test: KINOMEscan competition binding; settings: compound 10.0 µM
[34] = test system: RET (human), P07949 [V804M]; test: KINOMEscan competition binding; settings: compound 10.0 µM
[35] = biological target: STK35 (human) (UniProt Q8TDR2); test: KINOMEscan competition binding; settings: compound 10.0 µM

ZAP70 (human), sequence (P43403 whole entry, looked up): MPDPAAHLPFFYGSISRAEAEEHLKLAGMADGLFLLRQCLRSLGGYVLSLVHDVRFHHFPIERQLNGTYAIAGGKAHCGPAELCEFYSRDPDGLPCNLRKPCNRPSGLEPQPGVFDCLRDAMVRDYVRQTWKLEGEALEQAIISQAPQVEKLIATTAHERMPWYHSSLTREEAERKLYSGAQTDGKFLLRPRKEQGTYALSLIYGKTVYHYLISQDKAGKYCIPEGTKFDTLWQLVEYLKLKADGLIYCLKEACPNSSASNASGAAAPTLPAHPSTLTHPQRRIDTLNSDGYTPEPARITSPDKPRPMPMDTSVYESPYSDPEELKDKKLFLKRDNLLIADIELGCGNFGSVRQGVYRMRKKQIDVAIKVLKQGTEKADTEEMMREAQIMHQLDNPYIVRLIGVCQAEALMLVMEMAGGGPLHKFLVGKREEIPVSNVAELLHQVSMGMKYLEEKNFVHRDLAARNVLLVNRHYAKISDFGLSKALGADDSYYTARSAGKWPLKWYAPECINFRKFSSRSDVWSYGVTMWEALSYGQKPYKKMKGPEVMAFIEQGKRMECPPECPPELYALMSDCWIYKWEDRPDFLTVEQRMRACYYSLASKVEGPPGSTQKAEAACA
INSRR (human), sequence (P14616 whole entry, looked up): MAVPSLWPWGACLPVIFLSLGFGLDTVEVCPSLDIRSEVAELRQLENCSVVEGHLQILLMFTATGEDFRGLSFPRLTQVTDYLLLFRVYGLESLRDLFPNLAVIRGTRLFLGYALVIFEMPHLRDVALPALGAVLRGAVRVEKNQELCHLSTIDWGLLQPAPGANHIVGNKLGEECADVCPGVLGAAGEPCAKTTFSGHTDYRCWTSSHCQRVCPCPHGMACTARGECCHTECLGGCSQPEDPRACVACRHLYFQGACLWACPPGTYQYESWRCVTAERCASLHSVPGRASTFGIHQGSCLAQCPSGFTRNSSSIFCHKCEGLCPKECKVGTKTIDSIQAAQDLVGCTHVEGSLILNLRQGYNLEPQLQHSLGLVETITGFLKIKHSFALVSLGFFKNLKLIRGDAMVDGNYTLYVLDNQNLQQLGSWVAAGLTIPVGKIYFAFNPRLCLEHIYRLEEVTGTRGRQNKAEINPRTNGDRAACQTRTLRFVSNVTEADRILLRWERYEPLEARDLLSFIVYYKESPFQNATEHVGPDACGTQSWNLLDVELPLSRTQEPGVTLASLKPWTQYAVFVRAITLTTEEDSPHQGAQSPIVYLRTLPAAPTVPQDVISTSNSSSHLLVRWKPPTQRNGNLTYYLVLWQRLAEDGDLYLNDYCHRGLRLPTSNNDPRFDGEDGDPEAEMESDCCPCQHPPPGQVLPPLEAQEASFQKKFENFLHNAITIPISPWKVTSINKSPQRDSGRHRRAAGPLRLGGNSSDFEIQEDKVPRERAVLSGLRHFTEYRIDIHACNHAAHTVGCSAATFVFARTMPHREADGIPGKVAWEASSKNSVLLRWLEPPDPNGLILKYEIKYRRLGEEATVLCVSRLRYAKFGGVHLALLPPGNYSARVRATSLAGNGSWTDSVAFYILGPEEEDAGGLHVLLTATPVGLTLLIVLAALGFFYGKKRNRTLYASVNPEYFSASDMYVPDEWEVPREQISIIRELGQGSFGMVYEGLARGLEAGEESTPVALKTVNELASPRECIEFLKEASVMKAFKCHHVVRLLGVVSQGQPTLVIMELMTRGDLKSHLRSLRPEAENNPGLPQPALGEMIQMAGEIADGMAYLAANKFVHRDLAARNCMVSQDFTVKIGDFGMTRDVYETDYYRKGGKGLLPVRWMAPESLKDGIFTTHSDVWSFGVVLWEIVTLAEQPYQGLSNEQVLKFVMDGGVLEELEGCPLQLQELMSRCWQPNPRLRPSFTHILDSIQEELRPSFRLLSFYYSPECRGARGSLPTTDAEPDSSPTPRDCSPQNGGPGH
PRKCZ (human), sequence (Q05513 whole entry, looked up): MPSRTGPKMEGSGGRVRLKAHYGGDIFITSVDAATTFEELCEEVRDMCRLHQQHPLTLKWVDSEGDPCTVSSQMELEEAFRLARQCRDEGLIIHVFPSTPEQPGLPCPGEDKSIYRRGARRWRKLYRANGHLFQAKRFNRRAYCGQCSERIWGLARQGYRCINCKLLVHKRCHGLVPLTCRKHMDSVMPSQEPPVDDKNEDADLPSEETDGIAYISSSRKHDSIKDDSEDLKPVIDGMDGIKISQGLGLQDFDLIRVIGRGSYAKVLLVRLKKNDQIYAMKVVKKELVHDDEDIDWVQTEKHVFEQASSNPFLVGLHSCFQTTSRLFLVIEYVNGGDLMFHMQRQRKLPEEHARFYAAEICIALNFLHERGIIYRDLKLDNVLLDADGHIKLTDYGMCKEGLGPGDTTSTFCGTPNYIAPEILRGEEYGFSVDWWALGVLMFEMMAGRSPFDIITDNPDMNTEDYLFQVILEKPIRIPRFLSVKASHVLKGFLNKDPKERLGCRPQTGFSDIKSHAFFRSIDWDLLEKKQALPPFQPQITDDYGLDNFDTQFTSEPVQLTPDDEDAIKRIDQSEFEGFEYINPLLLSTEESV
MAPK13 (human), sequence (O15264 whole entry, looked up): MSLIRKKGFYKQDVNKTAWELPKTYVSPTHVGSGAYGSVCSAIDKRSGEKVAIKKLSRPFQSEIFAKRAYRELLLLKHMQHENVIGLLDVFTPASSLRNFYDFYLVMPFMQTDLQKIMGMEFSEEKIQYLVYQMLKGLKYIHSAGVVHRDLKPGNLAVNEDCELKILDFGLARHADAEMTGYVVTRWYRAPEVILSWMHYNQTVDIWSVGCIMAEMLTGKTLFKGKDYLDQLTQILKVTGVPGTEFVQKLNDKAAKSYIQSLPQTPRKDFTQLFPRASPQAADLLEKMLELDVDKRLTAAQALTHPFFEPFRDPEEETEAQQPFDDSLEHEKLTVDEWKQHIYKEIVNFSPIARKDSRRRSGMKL
RPS6KA5 KD1 KD2 (human), sequence (O75582 whole entry, looked up): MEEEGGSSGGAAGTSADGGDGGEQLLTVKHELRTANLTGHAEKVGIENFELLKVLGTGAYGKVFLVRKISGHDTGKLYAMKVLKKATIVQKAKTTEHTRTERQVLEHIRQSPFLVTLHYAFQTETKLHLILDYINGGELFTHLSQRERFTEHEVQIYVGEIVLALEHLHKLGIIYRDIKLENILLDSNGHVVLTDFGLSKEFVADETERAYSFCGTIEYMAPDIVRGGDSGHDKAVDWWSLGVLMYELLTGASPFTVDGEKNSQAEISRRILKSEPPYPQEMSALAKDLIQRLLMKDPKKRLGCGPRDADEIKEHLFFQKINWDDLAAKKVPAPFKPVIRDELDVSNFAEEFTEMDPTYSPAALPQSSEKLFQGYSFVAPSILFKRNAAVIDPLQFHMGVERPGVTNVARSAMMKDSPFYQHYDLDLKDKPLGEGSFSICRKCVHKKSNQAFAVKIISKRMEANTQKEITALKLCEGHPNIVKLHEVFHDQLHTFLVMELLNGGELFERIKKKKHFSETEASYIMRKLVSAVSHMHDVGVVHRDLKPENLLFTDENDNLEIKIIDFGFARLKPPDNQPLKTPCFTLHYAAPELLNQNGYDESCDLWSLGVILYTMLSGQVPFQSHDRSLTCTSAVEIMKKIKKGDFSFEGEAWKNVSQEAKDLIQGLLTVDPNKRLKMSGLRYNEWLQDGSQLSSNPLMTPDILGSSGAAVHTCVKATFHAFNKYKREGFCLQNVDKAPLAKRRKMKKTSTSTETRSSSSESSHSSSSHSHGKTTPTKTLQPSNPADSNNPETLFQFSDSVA
CSK (human), sequence (P41240 whole entry, looked up): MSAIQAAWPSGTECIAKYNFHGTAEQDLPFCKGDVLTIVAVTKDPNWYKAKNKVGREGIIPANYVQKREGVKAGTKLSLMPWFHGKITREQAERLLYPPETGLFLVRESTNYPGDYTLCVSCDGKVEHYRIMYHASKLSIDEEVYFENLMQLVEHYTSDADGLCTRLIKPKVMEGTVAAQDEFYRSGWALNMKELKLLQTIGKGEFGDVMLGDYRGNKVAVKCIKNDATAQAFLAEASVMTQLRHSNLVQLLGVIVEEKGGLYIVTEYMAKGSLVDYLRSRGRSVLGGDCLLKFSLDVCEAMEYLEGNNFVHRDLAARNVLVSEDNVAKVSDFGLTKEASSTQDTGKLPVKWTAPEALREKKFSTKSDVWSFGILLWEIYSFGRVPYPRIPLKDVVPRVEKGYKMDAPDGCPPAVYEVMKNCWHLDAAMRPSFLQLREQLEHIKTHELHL
MAPKAPK5 (human), sequence (Q8IW41 whole entry, looked up): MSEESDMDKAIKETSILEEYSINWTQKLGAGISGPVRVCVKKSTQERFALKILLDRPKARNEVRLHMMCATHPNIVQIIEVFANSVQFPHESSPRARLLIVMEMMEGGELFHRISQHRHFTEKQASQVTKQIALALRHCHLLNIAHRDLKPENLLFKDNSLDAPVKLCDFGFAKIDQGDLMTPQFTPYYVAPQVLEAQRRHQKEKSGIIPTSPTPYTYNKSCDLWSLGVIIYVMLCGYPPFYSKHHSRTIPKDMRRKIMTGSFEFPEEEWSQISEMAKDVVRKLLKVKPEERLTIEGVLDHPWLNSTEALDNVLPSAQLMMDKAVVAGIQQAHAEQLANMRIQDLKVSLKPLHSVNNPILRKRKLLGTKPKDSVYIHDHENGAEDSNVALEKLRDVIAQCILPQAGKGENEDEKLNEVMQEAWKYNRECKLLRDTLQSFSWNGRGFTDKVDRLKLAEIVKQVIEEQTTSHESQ

Q: What does the source list for `CCN1CCN(Cc2ccc(NC(=O)c3ccc(C)c(Oc4ccnc5[nH]ccc45)c3)cc2C(F)(F)F)CC1`?
A: residual activity ([1]; compound 0.1 µM): 98.3%; residual activity ([1]; compound 1.0 µM): 70.7%; residual activity ([1]; compound 10.0 µM): 20.7%; residual activity ([2]; compound 0.1 µM): 81.8%; residual activity ([2]; compound 1.0 µM): 15.4%; residual activity ([2]; compound 10.0 µM): 7.86%; residual activity ([3]; compound 0.1 µM): 107%; residual activity ([3]; compound 1.0 µM): 97.8%; residual activity ([3]; compound 10.0 µM): 84.9%; residual activity ([4]; compound 0.1 µM): 74%; residual activity ([4]; compound 1.0 µM): 19.5%; residual activity ([4]; compound 10.0 µM): 13.7%; residual activity ([5]; compound 0.1 µM): 112%; residual activity ([5]; compound 1.0 µM): 91.3%; residual activity ([5]; compound 10.0 µM): 46.1%; residual activity ([6]; compound 0.1 µM): 116%; residual activity ([6]; compound 1.0 µM): 91.8%; residual activity ([6]; compound 10.0 µM): 31.8%; residual activity ([7]; compound 0.1 µM): 98.7%; residual activity ([7]; compound 1.0 µM): 33.7%; residual activity ([7]; compound 10.0 µM): 7.2%; residual activity ([8]; compound 0.1 µM): 105%; residual activity ([8]; compound 1.0 µM): 97.4%; residual activity ([8]; compound 10.0 µM): 92.2%; residual activity ([9]; compound 0.1 µM): 107%; residual activity ([9]; compound 1.0 µM): 108%; residual activity ([9]; compound 10.0 µM): 98.9%; residual activity ([10]; compound 0.1 µM): 99.4%; residual activity ([10]; compound 1.0 µM): 96%; residual activity ([10]; compound 10.0 µM): 92.7%; residual activity ([11]; compound 0.1 µM): 81.2%; residual activity ([11]; compound 1.0 µM): 45.8%; residual activity ([11]; compound 10.0 µM): 21.4%; residual activity ([12]; compound 0.1 µM): 92.4%; residual activity ([12]; compound 1.0 µM): 89.5%; residual activity ([12]; compound 10.0 µM): 59.9%; kinase still bound, per cent of control [13]: 2.4%; kinase still bound, per cent of control [14]: 6.2%; kinase still bound, per cent of control [15]: 28%; residual activity [16]: 0.05%; residual activity [17]: 0.4%; residual activity [18]: 11%; kinase still bound, per cent of control [19]: 0.1%; kinase still bound, per cent of control [20]: 14%; kinase still bound, per cent of control [21]: 15%; kinase still bound, per cent of control [22]: 9.4%; kinase still bound, per cent of control [23]: 31%; kinase still bound, per cent of control [24]: 0.4%; kinase still bound, per cent of control [25]: 6.2%; kinase still bound, per cent of control [26]: 30%; kinase still bound, per cent of control [27]: 23%; kinase still bound, per cent of control [28]: 1.5%; kinase still bound, per cent of control [29]: 13%; kinase still bound, per cent of control [30]: 0.35%; kinase still bound, per cent of control [31]: 8.4%; kinase still bound, per cent of control [32]: 4.8%; kinase still bound, per cent of control [33]: 14%; kinase still bound, per cent of control [34]: 1%; kinase still bound, per cent of control [35]: 3%

Source: the kinase profiling compilation of Christmann-Franck et al. (2016)
